These results are taken from patent publication US20020002198A1, “Chemical synergy to elevate growth hormone release in vertebrates” (priority 2000, published 2002).

The structures appear in SMILES notation.

The test system of data set [1] is GH release. Description: Serum GH at 1.5 hours post night time sleep after oral ingestion, antibody capture technique, healthy volunteer. The format is in vivo, human. The settings on record: for Augmentation of GH release at 1.5 hours post sleep (in words): oral at night sleep. On the procedure: Measurements of GH release occurring at 1.5 hours post sleep were performed on serum samples from a healthy volunteer. Controls and serum analysis for GH were measured by standard commercially avialable antibody capture technique. Experiments and measurement of results occurred between June and October 2000. Each single night experimental serum collection was separated from any other experiments by 1 week. All determinations represent averaged value of triple determinations. […] Measurements were each performed on serum collected 1.5 hours post night time sleep. Choice of 1.5 hours post sleep represents one complete sleep cycle with slow wave sleep during which GH is released. Oral ingestions of stated substances occurred just before night sleep. The normal range of serum GH at 1.5 hours post sleep is in the 1-10 nanograms per milliliter (ng/ml) range. The variance in measurement precision is given by the second value. All experiments were preceded by a period of 3-4 hours since the last meal.

The conditions of data set [2]: in vivo; cited from earlier work.
The subject of data set [3] is GH release. The settings on record: cited from earlier work.
For data set [4] the following is noted: cited from earlier work.
For data set [5] the following is noted: oral ingestion, humans; cited from earlier work.
The subject of data set [6] is mitochondrial maximal energy production. The settings on record: pharmacological levels, intravenous, aged animals, within an hour or two; cited from earlier work.

Consider `NCCC[C@H](N)C(=O)O` [l-ornithine], for which the “Augmentation of GH release at 1.5 hours post sleep (in words)” value in the data set with GH release [1] is recorded as “absence of effect”.

Take `NCCCCN` [putrescine]: the “Toxicity when administered systematically (in words)” value (“Toxicity … (in words)” below) in data set [2] is listed as “considerably less toxic”.

With `N=C(N)NCCC[C@H](N)C(=O)O` [l-arginine], in the data set on GH release [3], the “Lowest oral dose that augmented normal night time GH release” value is “greater than 3 grams”. Also, the “Elevation of growth hormone secretion (in words)” value in the data set with GH release [3] (oral, alone, doses of up to 6 gram at night) is recorded as “does not elevate growth hormone secretion”.

In the case of `CC(=O)O[C@H](CC(=O)[O-])C[N+](C)(C)C` [Acetyl-l-carnitine, acetyl-l-carnitine], the “Measured GH” value in the data set with GH release [1] (500 mg of the single substance alone, oral at sleep, 1.5 hour post sleep serum collection, 3-4 hours after last meal, control […] ± 0.2) came out at 0.55 ± 0.1 ng/mL. Besides, the “Augmentation of GH release at 1.5 hours post sleep (in words)” value with GH release [1] is “absence of effect”. Besides, the “Safety in long human testing (in words)” value in data set [4] (2.5-7 grams per day, Alzheimer's disease treatment) was “without reported negative consequences”. Besides, the “Toxicity sets in at” value in data set [4] (comparable to normal nutritional amino acids) is “about 1 % of body weight”. In addition, the “Maximal immediately absorbed dose” value in data set [5] was 500 to 2000 milligrams. In data set [6], the “Restoration of mitochondrial maximal energy production (in words)” value is reported as “restore mitochondrial maximal energy production to youthful levels”.

On to `NCCCNCCCCNCCCN` [spermine], for which, in data set [2], the “Toxicity … (in words)” value was “significant toxicity”.

In the case of `NCCCCNCCCN` [spermidine], the “Toxicity … (in words)” value in data set [2] is “considerably less toxic”.
